For nine molecules, TGI and GI50 results are on record in PubChem BioAssay (NCI).

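Dose response: 5 concentrations. Exposure: 48 h. Format: 96-well plates. Endpoint: linear interpolation; highest concentration if not reached. GI50: concentration for 50% inhibition of growth. At the TGI there is no net growth.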

Some test systems named below: COLO 205 colon; HOP-62 NSCLC; HOP-92 NSCLC; M14 melanoma; NCI/ADR-RES ovarian; OVCAR-5 ovarian; SK-OV-3 ovarian; U251 CNS.
What all share (assay): NCI anticancer screen, dose series, 48 h

Regarding `C/C(=N\NC(=O)c1ccncc1)c1ccc2ccccc2c1O`, the TGI was 11.5 µM in the assay with COLO 205 colon; over 72.7 µM in the assay with HOP-62 NSCLC; over 100 µM in the assay with HOP-92 NSCLC; 38.2 µM in the assay on M14 melanoma; over 54.3 µM in the assay on NCI/ADR-RES ovarian; over 100 µM in the assay on OVCAR-5 ovarian. For the same molecule, the TGI in the assay with SK-OV-3 ovarian was over 60.7 µM; with U251 CNS, over 62.2 µM.

Regarding `CCCCCC(O)C1C(=O)OC(C)C(O)/C=C/C=C/C=C/C=C\C=C(\C)C(O)CC(O)CC(O)CC(O)CC(O)CC(O)CC1O` (stereo not drawn), the GI50 in the assay on COLO 205 colon, in the assay on HOP-62 NSCLC, with HOP-92 NSCLC, in the assay with M14 melanoma, in the assay on NCI/ADR-RES ovarian and in the assay with OVCAR-5 ovarian was over 100 µM throughout. Also, the GI50 in the assay with SK-OV-3 ovarian and in the assay with U251 CNS was over 100 µM throughout. For the same molecule, the TGI in the assay with COLO 205 colon, with HOP-62 NSCLC, in the assay with HOP-92 NSCLC, with M14 melanoma, in the assay with NCI/ADR-RES ovarian and in the assay with OVCAR-5 ovarian was over 100 µM throughout. Besides, the TGI in the assay on SK-OV-3 ovarian and in the assay on U251 CNS was over 100 µM each time.

For `COc1ccc(-c2ccc(/C=N/n3c(COc4ccccc4Cl)nn(CN4CCN(C)CC4)c3=S)o2)c([N+](=O)[O-])c1`, the GI50 was 24.4 µM with COLO 205 colon; 21.7 µM in the assay on HOP-62 NSCLC; 21 µM in the assay with HOP-92 NSCLC; 17.7 µM with M14 melanoma; 18.5 µM with NCI/ADR-RES ovarian; 21.6 µM with OVCAR-5 ovarian. Further, the GI50 in the assay on SK-OV-3 ovarian is 30.6 µM; in the assay with U251 CNS, 13.2 µM. Also, the TGI in the assay with COLO 205 colon amounted to 60.3 µM; in the assay on HOP-62 NSCLC it was 37 µM; in the assay on HOP-92 NSCLC, 70.7 µM; with M14 melanoma, 34.2 µM; in the assay with NCI/ADR-RES ovarian it was 41.6 µM; in the assay with OVCAR-5 ovarian, 46.6 µM. For the same molecule, the TGI in the assay on SK-OV-3 ovarian stood at 83.8 µM; in the assay on U251 CNS it was 27.8 µM.

Turning to `O=P(O)(O)c1ccccc1` (tested in a mixture with another compound), the TGI in the assay with COLO 205 colon, in the assay on HOP-62 NSCLC, in the assay with HOP-92 NSCLC, in the assay with M14 melanoma, in the assay with NCI/ADR-RES ovarian and in the assay on OVCAR-5 ovarian was over 100 µM each time. Further, the TGI in the assay on SK-OV-3 ovarian and with U251 CNS was over 100 µM throughout.

On to `COc1cc(NCCCCN=C(N)NC(N)=NC(C)C)c2ncccc2c1`, for which the GI50 with COLO 205 colon was 0.987 µM; with HOP-62 NSCLC, 13.7 µM; in the assay on HOP-92 NSCLC, 1.28 µM; in the assay with M14 melanoma, 14.6 µM; with NCI/ADR-RES ovarian it was over 100 µM; in the assay on OVCAR-5 ovarian, 17.3 µM. The GI50 was 34.4 µM in the assay on SK-OV-3 ovarian and 5.65 µM in the assay on U251 CNS. Further, the TGI in the assay with COLO 205 colon is 4.46 µM; in the assay with HOP-62 NSCLC, 28.6 µM; in the assay with HOP-92 NSCLC, 12.5 µM; in the assay on M14 melanoma, 38.3 µM; in the assay on NCI/ADR-RES ovarian it was over 100 µM; in the assay with OVCAR-5 ovarian, over 88.3 µM. The TGI was over 100 µM in the assay on SK-OV-3 ovarian and 21.1 µM in the assay on U251 CNS.

As to `CCN(CC)c1cc(/C=C/c2ccc(OC)c(OC)c2)nc2cc(F)c(F)cc12`, the GI50 was 26.7 µM in the assay with COLO 205 colon; 2.08 µM in the assay with HOP-62 NSCLC; 1.68 µM in the assay with HOP-92 NSCLC; 26.3 µM in the assay with M14 melanoma; 7.52 µM with NCI/ADR-RES ovarian; 20.3 µM in the assay on OVCAR-5 ovarian. Moreover, the values for the GI50 in the assay with SK-OV-3 ovarian and in the assay on U251 CNS were 1.98 µM and 2.18 µM, respectively. The TGI with COLO 205 colon was over 100 µM; in the assay on HOP-62 NSCLC, 5.44 µM; with HOP-92 NSCLC, 4.74 µM; in the assay with M14 melanoma, over 100 µM; in the assay on NCI/ADR-RES ovarian it was over 100 µM; with OVCAR-5 ovarian it was over 100 µM. The TGI is 4.54 µM in the assay with SK-OV-3 ovarian and 4.98 µM in the assay on U251 CNS.

Take `O=C1C(Br)=CC2(C=C1Br)CCN=c1c2c(O)c2nc3ccccc3c3ccnc1c23`: the GI50 with COLO 205 colon was 1.05 µM; in the assay with HOP-62 NSCLC, 7.99 µM; in the assay on HOP-92 NSCLC it was 0.593 µM; with M14 melanoma, 1.73 µM; in the assay with NCI/ADR-RES ovarian, 2.04 µM; in the assay on OVCAR-5 ovarian it was 7.22 µM. The GI50 in the assay on SK-OV-3 ovarian was 5.03 µM; in the assay on U251 CNS, 1.67 µM. Moreover, the TGI in the assay with COLO 205 colon was determined as 3.03 µM; in the assay on HOP-62 NSCLC, 15.6 µM; in the assay with HOP-92 NSCLC, 2.38 µM; in the assay on M14 melanoma, 8.73 µM; with NCI/ADR-RES ovarian, 29.2 µM; with OVCAR-5 ovarian, 17.6 µM. Further, the TGI in the assay with SK-OV-3 ovarian stood at 11 µM; in the assay on U251 CNS, 7.04 µM.

For the molecule `Cc1ccc(C2NC(=S)NC3=C2CCOc2c3ccc3ccccc23)cc1` (stereo not drawn), the GI50 in the assay with COLO 205 colon is 9.64 µM; in the assay on HOP-62 NSCLC, over 100 µM; in the assay on HOP-92 NSCLC, 39.8 µM; in the assay on M14 melanoma, 79 µM; with NCI/ADR-RES ovarian, 96.5 µM; in the assay on OVCAR-5 ovarian it was over 100 µM. Further, the GI50 in the assay with SK-OV-3 ovarian and with U251 CNS was over 100 µM each time. Further, the TGI with COLO 205 colon, with HOP-62 NSCLC, in the assay with HOP-92 NSCLC, in the assay with M14 melanoma, in the assay on NCI/ADR-RES ovarian and with OVCAR-5 ovarian was over 100 µM throughout. The TGI in the assay on SK-OV-3 ovarian and in the assay with U251 CNS was over 100 µM throughout.

As for `NC(=NCCCOc1ccc(Cl)cc1)Nc1ccc(Cl)cc1`, the GI50 in the assay on COLO 205 colon was 1.17 µM; in the assay with HOP-62 NSCLC it was 2.53 µM; in the assay with HOP-92 NSCLC, 1.51 µM; in the assay on M14 melanoma, 1.67 µM; with NCI/ADR-RES ovarian, 3.03 µM; in the assay on OVCAR-5 ovarian it was 2.02 µM. The figures for the GI50 in the assay with SK-OV-3 ovarian and in the assay with U251 CNS were 3.31 µM and 2.65 µM, respectively. The TGI with COLO 205 colon was 2.75 µM; in the assay with HOP-62 NSCLC, 8.01 µM; in the assay on HOP-92 NSCLC it was 5.53 µM; in the assay on M14 melanoma, 3.39 µM; in the assay with NCI/ADR-RES ovarian it was 9.92 µM; in the assay with OVCAR-5 ovarian, 6.56 µM. In addition, the values for the TGI in the assay with SK-OV-3 ovarian and in the assay on U251 CNS were 12.3 µM and 8.36 µM, respectively.
